Consider 2 compounds from patent publication US8796176B2, “Pesticidal composition comprising an alpha-alkoxyphenyl acetic acid derivative and a neonicotinoid compound” (Sumitomo Chemical Company, Ltd, priority 2008, dated 2014).

The subject of the assay is Rhizoctonia solani. The assay can be described thus: Cucumber seed treatment test against Rhizoctonia solani (Test Example 4). The format is in vivo. Particulars: cucumber seeds, seventh day after dissemination. How it is done:
5: Diameter of maculation: >20 mm Incidence of disease=Σ(Evaluation index of leaves checked)×100/(Number of total leaves checked) “Equation 1” Control value=100(A−B)/A “Equation 2” A: Incidence of disease of plant in untreated area B: Incidence of disease of plant in treated area Generally, the control value expected for the case where the given two kinds of active ingredient compounds are mixed and used for the treatment, the so-called control value expectation is calculated from the following Colby's calculating equation. […] They were allowed to grow in a greenhouse while irrigated and the number of non-budding seeds was checked on the seventh day after the dissemination and the incidence of disease was calculated by Equation 4. The control value was calculated by Equation 2 based on the incidence of disease. […]

On to `CNC(=O)C(OC)c1ccccc1COc1cc(C)ccc1C` (racemic) [(1b)], for which the Actual control value (compound (1b) alone 10 g/Seed 100 kg) is 35%.
With `CN/C(=N\[N+](=O)[O-])NCc1cnc(Cl)s1` [Clothianidin, clothianidin], the Actual control value (clothianidin alone 200 g/Seed 100 kg) amounted to 4%.
